Experimental data as given in the NIST ThermoML archive (doi:10.1021/je9010882).
Where “and” joins values, the source holds several entries; their conditions need not be identical. Identical values can stand only once. ± gives the expanded uncertainty stated by the source.

Columns and labels:
[1] = xn = mol fraction of the nth substance listed; conditions: 101 kPa, Liquid; for speed of sound: Pulse-echo method
[2] = 101 kPa, Liquid; for speed of sound: Pulse-echo method

For CCCCC(CC)CO (stereo not given) [2-ethyl-1-hexanol] + OCCO, the speed of sound ([1]; 298.15 K, x2 = 0) was 1318.4 ± 2.2 m/s, the speed of sound ([1]; 298.15 K, x2 = 0.1858) was 1334.2 ± 2.2 m/s and the speed of sound ([1]; 298.15 K, x2 = 0.2952) was 1345.5 ± 2.2 m/s. For the same molecule, the speed of sound ([1]; 298.15 K, x2 = 0.4043) was 1358.8 ± 2.2 m/s, the speed of sound ([1]; 298.15 K, x2 = 0.4914) was 1372.4 ± 2.2 m/s and the speed of sound ([1]; 298.15 K, x2 = 0.599) was 1394.9 ± 2.2 m/s. The speed of sound ([1]; 298.15 K, x2 = 0.6996) was 1423.5 ± 2.2 m/s, the speed of sound ([1]; 298.15 K, x2 = 0.7985) was 1468.2 ± 2.2 m/s and the speed of sound ([1]; 298.15 K, x2 = 0.9) was 1539.4 ± 2.2 m/s. The mass density ([1]; 298.15 K, x2 = 0) was 828.667 ± 0.42 kg/m3, the mass density ([1]; 298.15 K, x2 = 0.1858) was 848.929 ± 0.4 kg/m3 and the mass density ([1]; 298.15 K, x2 = 0.2952) was 863.973 ± 0.38 kg/m3. For the same molecule, the mass density ([1]; 298.15 K, x2 = 0.4043) was 881.937 ± 0.36 kg/m3, the mass density ([1]; 298.15 K, x2 = 0.4512) was 890.807 ± 0.34 kg/m3 and the mass density ([1]; 298.15 K, x2 = 0.4914) was 899.091 ± 0.34 kg/m3. It also gave a mass density ([1]; 298.15 K, x2 = 0.599) of 924.736 ± 0.3 kg/m3, a mass density ([1]; 298.15 K, x2 = 0.6996) of 954.672 ± 0.27 kg/m3 and a mass density ([1]; 298.15 K, x2 = 0.7985) of 991.938 ± 0.24 kg/m3. It also gave a mass density ([1]; 298.15 K, x2 = 0.8507) of 1015.69 ± 0.26 kg/m3 and a mass density ([1]; 298.15 K, x2 = 0.9) of 1041.98 ± 0.3 kg/m3.
With CCCCCCCCCO [nonan-1-ol] the mass density ([2]; 293.15 K, Vibrating tube method) was 827.65 ± 0.24 kg/m3 and the mass density ([2]; 298.15 K, Vibrating tube method) was 824.238 ± 0.25 kg/m3.
In the case of CCCCCCCO [heptan-1-ol], the mass density ([2]; 298.15 K) is reported as 818.793 ± 0.55 kg/m3 and the speed of sound ([2]; 298.15 K) is reported as 1327 ± 2.4 m/s.
Molecule CCCCCCCO [heptan-1-ol] + OCCO has a speed of sound ([1]; 298.15 K, x2 = 0) of 1327 ± 2.4 m/s, a speed of sound ([1]; 298.15 K, x2 = 0.0668) of 1330.3 ± 2.4 m/s and a speed of sound ([1]; 298.15 K, x2 = 0.2007) of 1339.2 ± 2.3 m/s. The speed of sound ([1]; 298.15 K, x2 = 0.2946) was 1346.9 ± 2.3 m/s, the speed of sound ([1]; 298.15 K, x2 = 0.4022) was 1359.6 ± 2.3 m/s and the speed of sound ([1]; 298.15 K, x2 = 0.4834) was 1371.6 ± 2.3 m/s. The speed of sound ([1]; 298.15 K, x2 = 0.5508) was 1384.3 ± 2.3 m/s, the speed of sound ([1]; 298.15 K, x2 = 0.6087) was 1398.5 ± 2.3 m/s and the speed of sound ([1]; 298.15 K, x2 = 0.6766) was 1418.2 ± 2.3 m/s. For the same molecule, the speed of sound ([1]; 298.15 K, x2 = 0.7988) was 1470.8 ± 2.2 m/s, the speed of sound ([1]; 298.15 K, x2 = 0.894) was 1538 ± 2.2 m/s and the mass density ([1]; 298.15 K, x2 = 0) was 818.793 ± 0.55 kg/m3. The mass density ([1]; 298.15 K, x2 = 0.0668) was 826.183 ± 0.53 kg/m3, the mass density ([1]; 298.15 K, x2 = 0.1162) was 832.262 ± 0.52 kg/m3 and the mass density ([1]; 298.15 K, x2 = 0.2007) was 843.633 ± 0.49 kg/m3. The mass density ([1]; 298.15 K, x2 = 0.2946) was 858.174 ± 0.46 kg/m3, the mass density ([1]; 298.15 K, x2 = 0.4022) was 877.754 ± 0.43 kg/m3 and the mass density ([1]; 298.15 K, x2 = 0.4834) was 895.05 ± 0.39 kg/m3. It also gave a mass density ([1]; 298.15 K, x2 = 0.5508) of 911.359 ± 0.38 kg/m3, a mass density ([1]; 298.15 K, x2 = 0.6087) of 927.049 ± 0.35 kg/m3 and a mass density ([1]; 298.15 K, x2 = 0.6766) of 948.151 ± 0.31 kg/m3. It also gave a mass density ([1]; 298.15 K, x2 = 0.7988) of 994.195 ± 0.26 kg/m3 and a mass density ([1]; 298.15 K, x2 = 0.894) of 1041.3 ± 0.3 kg/m3.
OCCO [1,2-ethanediol] + CCCCCCCO gave a speed of sound ([1]; 298.15 K, x1 = 1) of 1655.2 ± 2.2 m/s.
In the case of CCCCCCCCCO [nonan-1-ol] + OCCO, the mass density ([1]; 293.15 K, x2 = 0) is reported as 827.65 ± 0.53 kg/m3, the mass density ([1]; 293.15 K, x2 = 0.1047) is reported as 837.118 ± 0.51 kg/m3 and the mass density ([1]; 293.15 K, x2 = 0.204) is reported as 847.778 ± 0.48 kg/m3. For the same molecule, the mass density ([1]; 293.15 K, x2 = 0.2878) was 858.547 ± 0.46 kg/m3, the mass density ([1]; 293.15 K, x2 = 0.3927) was 874.431 ± 0.43 kg/m3 and the mass density ([1]; 293.15 K, x2 = 0.5203) was 898.673 ± 0.38 kg/m3. For the same molecule, the mass density ([1]; 293.15 K, x2 = 0.5982) was 917.33 ± 0.35 kg/m3, the mass density ([1]; 293.15 K, x2 = 0.703) was 948.15 ± 0.31 kg/m3 and the mass density ([1]; 293.15 K, x2 = 0.7805) was 977.295 ± 0.28 kg/m3. The mass density ([1]; 293.15 K, x2 = 0.9004) was 1038.17 ± 0.36 kg/m3, the mass density ([1]; 298.15 K, x2 = 0) was 824.238 ± 0.54 kg/m3 and the mass density ([1]; 298.15 K, x2 = 0.1047) was 833.672 ± 0.51 kg/m3. It also gave a mass density ([1]; 298.15 K, x2 = 0.204) of 844.308 ± 0.48 kg/m3, a mass density ([1]; 298.15 K, x2 = 0.2878) of 855.056 ± 0.46 kg/m3 and a mass density ([1]; 298.15 K, x2 = 0.3927) of 870.919 ± 0.42 kg/m3. The mass density ([1]; 298.15 K, x2 = 0.5203) was 895.129 ± 0.38 kg/m3, the mass density ([1]; 298.15 K, x2 = 0.5982) was 913.771 ± 0.34 kg/m3 and the mass density ([1]; 298.15 K, x2 = 0.703) was 944.568 ± 0.29 kg/m3. The mass density ([1]; 298.15 K, x2 = 0.7805) was 973.695 ± 0.24 kg/m3 and the mass density ([1]; 298.15 K, x2 = 0.9004) was 1034.58 ± 0.27 kg/m3.
Molecule CCO [ethanol] has a mass density ([2]; 298.15 K) of 785.144 ± 0.47 kg/m3 and a speed of sound ([2]; 298.15 K) of 1142 ± 2.1 m/s.
In the case of OCCO [1,2-ethanediol] + CCCCCCCCCO, the mass density ([1]; 293.15 K, x1 = 1) is reported as 1113.37 ± 0.37 kg/m3.
For OCCO [1,2-ethanediol] + CCCCC(CC)CO, the speed of sound ([1]; 298.15 K, x1 = 1) was 1655.2 ± 2.2 m/s.
With CCO [ethanol] + OCCO the speed of sound ([1]; 298.15 K, x2 = 0) was 1142 ± 2.1 m/s and the mass density ([1]; 298.15 K, x2 = 0) was 785.144 ± 0.47 kg/m3.
In the case of OCCO [1,2-ethanediol], the mass density ([2]; 293.15 K) is reported as 1113.37 ± 0.37 kg/m3 and the speed of sound ([2]; 298.15 K) is reported as 1654.4 ± 2.2 m/s and 1655.2 ± 2.2 m/s.
Work on OCCO [1,2-ethanediol] + CCO yielded a speed of sound ([1]; 298.15 K, x1 = 0.1002) of 1187.5 ± 2.1 m/s, a speed of sound ([1]; 298.15 K, x1 = 0.198) of 1231.7 ± 2.2 m/s and a speed of sound ([1]; 298.15 K, x1 = 0.3014) of 1279.7 ± 2.2 m/s. The speed of sound ([1]; 298.15 K, x1 = 0.3998) was 1328 ± 2.2 m/s, the speed of sound ([1]; 298.15 K, x1 = 0.4944) was 1374.9 ± 2.2 m/s and the speed of sound ([1]; 298.15 K, x1 = 0.6428) was 1454.5 ± 2.2 m/s. For the same molecule, the speed of sound ([1]; 298.15 K, x1 = 0.7499) was 1513.4 ± 2.2 m/s, the speed of sound ([1]; 298.15 K, x1 = 0.8498) was 1569.5 ± 2.2 m/s and the speed of sound ([1]; 298.15 K, x1 = 1) was 1654.4 ± 2.2 m/s. It also gave a mass density ([1]; 298.15 K, x1 = 0.1002) of 819.39 ± 0.43 kg/m3, a mass density ([1]; 298.15 K, x1 = 0.198) of 852.357 ± 0.38 kg/m3 and a mass density ([1]; 298.15 K, x1 = 0.3014) of 886.918 ± 0.33 kg/m3. It also gave a mass density ([1]; 298.15 K, x1 = 0.3462) of 901.797 ± 0.31 kg/m3, a mass density ([1]; 298.15 K, x1 = 0.4944) of 950.526 ± 0.26 kg/m3 and a mass density ([1]; 298.15 K, x1 = 0.6428) of 998.611 ± 0.21 kg/m3. It also gave a mass density ([1]; 298.15 K, x1 = 0.7499) of 1032.4 ± 0.25 kg/m3 and a mass density ([1]; 298.15 K, x1 = 0.8498) of 1063.88 ± 0.3 kg/m3.
In the case of CCCCC(CC)CO (stereo not given) [2-ethyl-1-hexanol], the mass density ([2]; 298.15 K) is reported as 828.667 ± 0.42 kg/m3 and the speed of sound ([2]; 298.15 K) is reported as 1318.4 ± 2.2 m/s.
